Experimental data reported in patent publication US8168619B1, “Hormonal composition based on a progestational agent and an oestrogen and use thereof” (Laboratoire Theramex, priority 1999, dated 2012).
Like-named read-outs stand apart in the source and are kept apart here.

Key:
[1] = doses higher than those of the application, prolonged treatments; cited from earlier work
endometrium [2] = experiment: Continuous combined estradiol + nomegestrol acetate, 6 months: endometrial thickness by endovaginal echography; format: in vivo, women; conditions: 6 months continuous
Procedure: (§1) A trial was carried out to study the effects on the endometrium of the continuous combined association of an oral estradiol dose equivalent to 1.5 mg and various doses of nomegestrol acetate.
(§2) This consisted in the treatment for 6 consecutive months of 179 women who had been menopausal for at least 3 years, with 1.5 mg per day of estradiol combined continuously with 4 different doses of nomegestrol acetate: 5 mg/day (n=47); 2.5 mg/day (n=42); 1.25 mg/day (n=43) and 0.625 mg/day (n=47).
(§3) The impact of these four associations on the endometrium was evaluated by recording the characteristics of genital bleeding, measuring the thickness of the endometrium by endovaginal echography before and at the end of the therapy, and by carrying out a biopsy of the endometrium before and at the end of the therapy.

menopausal women [3] = experiment: Sequential estrogen-progestative therapy: interval before periods after therapy is interrupted; format: in vivo; conditions: Day 13-22, with 30 μg ethinyl estradiol
Procedure: (§4) Menopausal women, whether naturally or as the result of surgery, were subjected to a sequential estrogen-progestative therapy. From Day 1 to Day 12 they received 30 μg of ethinyl estradiol and then, from Day 13 to Day 22, the same dose of ethinyl estradiol associated with different doses of nomegestrol acetate or chlormadinone acetate. The doses were as follows:
(§5) The number of women was between 2 and 11, depending on the group. There was then a therapeutic pause of 7 days followed by a second treatment cycle.
(§6) The parameters taken into account were as follows: • the interval before periods commenced after the therapy had been interrupted, following the first and second treatment cycles; • the histological appearance of the endometrium recovered in a biopsy carried out between Day 17 and Day 20 of the second cycle.

endometrium [4] = experiment: Continuous combined estradiol + nomegestrol acetate, 6 months: biopsy of the endometrium; format: in vivo, women
Procedure: as §1, §2, §3

endometrium [5] = conditions: cited from earlier work
menopausal women [6] = experiment: Continuous combined estradiol + nomegestrol acetate, 6 months: genital bleeding; format: in vivo
Procedure: as §1, §2, §3

endometrial cells = experiment: Sequential estrogen-progestative therapy: histological appearance of endometrium biopsy; format: in vivo, women; conditions: for Number of mitoses (% of section in which mitoses were present), Glands: with 30 μg ethinyl estradiol, biopsy Day 17-20 of second cycle
Procedure: as §4, §5, §6

[7] = NEUMANN publication; cited from earlier work
[8] = Dose producing an adequate delay in the onset of periods (literature); format: in vivo; conditions: NEUMANN; reference progestative norgestrel (=1)
Source text: (§7) 2) Apart from the above, it would be reasonable to think that the doses claimed should be based on data from clinical pharmacology and/or clinical data previously published and commonly accepted. Now, if the doses defined as in the PLUNKETT patents are considered, it is easy to see that in most cases the active doses published already a long time ago, i.e. before the said patents were filed (NEUMANN, 1977) or more recently (KUHL, 1996), are very coherent but only rarely lie within the dose ranges claimed in the patents in the name of PLUNKETT (Table 2).

[9] = NEUMANN publication; cited from earlier work; remark: listed apart in the source
[10] = Dose having a contraceptive effect (literature); format: in vivo; conditions: NEUMANN; reference progestative norgestrel (=1)
Source text: as §7

ovulation [11] = conditions: NEUMANN publication; cited from earlier work
endometrium [12] = experiment: Dose inducing transformation of the endometrium (literature); format: in vivo; conditions: NEUMANN; reference progestative norgestrel (=1)
Source text: as §7

endometrium [13] = conditions: NEUMANN publication; cited from earlier work
ovulation [14] = experiment: Dose inhibiting ovulation (literature); format: in vivo; conditions: NEUMANN; reference progestative norgestrel (=1)
Source text: as §7

[15] = NOMAC 0.625 mg/day + estradiol (2 mg estradiol valerate)
[16] = NOMAC 1.25 mg/day + estradiol (2 mg estradiol valerate)
[17] = NOMAC 2.5 mg/day + estradiol (2 mg estradiol valerate)
[18] = NOMAC 5 mg/day + estradiol (2 mg estradiol valerate)
[19] = NOMAC 0.625 mg/day (n = 32) + estradiol (2 mg estradiol valerate)
[20] = NOMAC 1.25 mg/day (n = 33) + estradiol (2 mg estradiol valerate)
[21] = NOMAC 2.5 mg/day (n = 34) + estradiol (2 mg estradiol valerate)
[22] = NOMAC 5 mg/day (n = 40) + estradiol (2 mg estradiol valerate)

## CC(=O)O[C@]1(C(C)=O)CC[C@H]2[C@@H]3C=C(C)C4=CC(=O)CC[C@@H]4[C@H]3CC[C@@]21C [Nomegestrol acetate, nomegestrol acetate]
[1]
  Tolerance: effect on lipids profile, tolerance to glucides, arterial pressure, coagulation factors: no effect on the lipids profile, the tolerance to glucides, the arterial pressure and the coagulation factors
Endometrium [2]; [15]
  Mean thickness at the end of the treatment: 3.18 mm
  Mean thickness increase under the treatment: 0.39 mm
Endometrium [2]; [16]
  Mean thickness at the end of the treatment: 4.05 mm
  Mean thickness increase under the treatment: 1.12 mm
Endometrium [2]; [17]
  Mean thickness at the end of the treatment: 3.93 mm
  Mean thickness increase under the treatment: 1.36 mm
Endometrium [2]; [18]
  Mean thickness at the end of the treatment: 3.83 mm
Endometrium [2]; NOMAC 5 mg/day + estradiol (2 mg estradiol valerate), listed as NOMAC
  Mean thickness increase under the treatment: 1.57 mm
Endometrium [2]; NOMAC 5 mg/day + estradiol (2 mg estradiol valerate), listed as nomegestrol acetate
  Mean thickness increase under the treatment: 1.56 mm
Menopausal women [3]; 0.1 mg/day
  Interval before the appearance of periods after the therapy is discontinued: -0.5 ± 1.5 days
Menopausal women [3]; 0.25 mg/day
  Interval before the appearance of periods after the therapy is discontinued: -0.5 ± 0.5 days
Menopausal women [3]; 0.5 mg/day
  Interval before the appearance of periods after the therapy is discontinued: 1.5 ± 0.5 days
Menopausal women [3]; 1.0 mg/day
  Interval before the appearance of periods after the therapy is discontinued: 2.7 ± 0.2 days
Menopausal women [3]; 2.5 mg/day
  Interval before the appearance of periods after the therapy is discontinued: 3.2 ± 0.2 days
Menopausal women [3]; 5 mg/day
  Interval before the appearance of periods after the therapy is discontinued: 4.3 ± 0.4 days
Menopausal women [3]; 10 mg/day
  Interval before the appearance of periods after the therapy is discontinued: 3.8 ± 0.8 days
Endometrium [4]; [19]
  Absence of endometrium, number of women: 5
  Atrophic endometrium, number of women: 19
  Polyps, number of women: 0
  Secretory endometrium, number of women: 8
Endometrium [4]; [15]
  Absence of endometrium, percentage: (15.6) percentage
  Atrophic endometrium, percentage: (59.4) percentage
  Secretory endometrium, percentage: (25.0) percentage
Endometrium [4]; [20]
  Absence of endometrium, number of women: 10
  Atrophic endometrium, number of women: 10
  Polyps, number of women: 1
  Secretory endometrium, number of women: 12
Endometrium [4]; [16]
  Absence of endometrium, percentage: (30.3) percentage
  Atrophic endometrium, percentage: (30.3) percentage
  Polyps, percentage: (3.0) percentage
  Secretory endometrium, percentage: (36.4) percentage
Endometrium [4]; [21]
  Absence of endometrium, number of women: 3
  Atrophic endometrium, number of women: 8
  Polyps, number of women: 1
  Secretory endometrium, number of women: 22
Endometrium [4]; [17]
  Absence of endometrium, percentage: (8.8) percentage
  Atrophic endometrium, percentage: (23.5) percentage
  Polyps, percentage: (2.9) percentage
  Secretory endometrium, percentage: (64.7) percentage
Endometrium [4]; [22]
  Absence of endometrium, number of women: 3
  Atrophic endometrium, number of women: 3
  Polyps, number of women: 0
  Secretory endometrium, number of women: 34
Endometrium [4]; [18]
  Absence of endometrium, percentage: (7.5) percentage
  Atrophic endometrium, percentage: (7.5) percentage
  Secretory endometrium, percentage: (85.0) percentage
Endometrium [5]; 5 mg/day for 12 days per cycle, with various estrogens, 150 women over 1 year (THOMAS et al. 1993)
  Endometrial hyperplasia: makes it possible to prevent endometrial hyperplasia
Endometrium [5]; 5 mg/day for 14 days per cycle, women treated with percutaneous estradiol (BERNARD et al. 1994)
  Endometrial hyperplasia: absence of hyperplasia was confirmed
Menopausal women [6]; 0.625 mg/day + 1.5 mg/day estradiol
  Percentage of women who showed no genital bleeding at all throughout the therapy: 42.5%
Menopausal women [6]; 1.25 mg/day + 1.5 mg/day estradiol
  Percentage of women who showed no genital bleeding at all throughout the therapy: 58.1%
Menopausal women [6]; 2.5 mg/day + 1.5 mg/day estradiol
  Percentage of women who showed no genital bleeding at all throughout the therapy: 52.4%
Menopausal women [6]; 5 mg/day + 1.5 mg/day estradiol
  Percentage of women who showed no genital bleeding at all throughout the therapy: 68.1%
Endometrial cells; 0.1 mg/day
  Number of mitoses (% of section in which mitoses were present), Glands: 50%
Endometrial cells; 0.25 mg/day
  Number of mitoses (% of section in which mitoses were present), Glands: 50%
Endometrial cells; 0.5 mg/day
  Number of mitoses (% of section in which mitoses were present), Glands: 0%
Endometrial cells; 1 mg/day
  Number of mitoses (% of section in which mitoses were present), Glands: 0%
Endometrial cells; 2 mg/day
  Number of mitoses (% of section in which mitoses were present), Glands: 0%
Endometrial cells; 2.5 mg/day
  Number of mitoses (% of section in which mitoses were present), Glands: 0%
Endometrial cells; 5 mg/day
  Number of mitoses (% of section in which mitoses were present), Glands: 0%
Endometrial cells; 10 mg/day
  Number of mitoses (% of section in which mitoses were present), Glands: 30%
Endometrial cells; sequential therapy with 30 μg ethinyl estradiol
  Dose at which mitosis no longer takes place in glandular cells: ≥ 0.5 mg/day

## C#CC1(O)CC[C@H]2[C@@H]3CCC4=CC(=O)CC[C@@H]4[C@H]3CC[C@@]21CC (stereo partly shown) [Norgestrel]
[7]
  Dose necessary to produce an adequate delay in the onset of periods (2), Menstruation: 2000 µg/day
[8]
  Dose ratio, Menstruation (2): 1.0
[9]
  Dose necessary to have a contraceptive effect (4): 250 µg/day
[10]
  Dose ratio, Contraception (4): 1.0
Ovulation [11]
  Dose necessary to inhibit ovulation (3): 100 µg/day
Endometrium [12]
  Dose ratio, Endometrium (1): 1.0
Endometrium [13]
  Dose necessary to induce transformation of the endometrium (1): 1200 µg/day
Ovulation [14]
  Dose ratio, Ovulation (3): 1.0
